Key:
T-47D cells = test: Effect of inhibitors on T-47D cell proliferation (DNA content); assay type: cell-based, human; details: T-47D cells, 9 d
Description: FIGS. 3A and 3B are graphs showing the effect compounds used in a method according preferred embodiment of the present invention, on cell proliferation. In particular, they relate to the effect of selected BSD and BNSD derivatives on T-47D cell proliferation. Cells were incubated for 9 d with the indicated concentrations of BSD-2 (∘), BNSD-4 (●), BSD-4 (□), BNSD-6 (▪), BSD-10 (Δ), BSD-4-ene (▴) and BSD-4-yne (▾) in medium containing 1 mM aminoguanidine, and total DNA content per culture was then determined. B, Effect of BNSD-X (N,N,N′,N′-tetrakis-(3-aminopropyl)-p-diaminoxylene) on cell proliferation in various mammalian cell lines. Jurkat (∘), LAN-1 (●), L1210 (□), T-47D (▪), ZR-75-1 (Δ) and MDA-MB-231 (▴) cells were grown to near confluency or saturation (for 4 to 11 d according to the cell line considered) with the indicated concentrations of BNSD-X in the presence of 1 mM aminoguanidine, and total DNA content per culture was then determined. Data are given as the mean±SD for triplicate cultures from one out of at least two identical experiments;
FIGS. 4A and 4B are graphs showing how compounds used in a method according to a preferred embodiment are differentially sensitive to degradation by BSAO (bovine serum amine oxidase). In particular, T-47D cells were incubated for 9 d with the indicated concentrations of BSD-X (∘), BNSD-X (●), BSD-3 (□) or BNSD-3 (▪) in the absence (A) or presence of 1 mM aminoguanidine (B), and total DNA content per culture was then determined. Data are presented as the mean±SD for triplicate cultures from one representative experiment;
The effect of transport inhibitors on cell proliferation was evaluated by determination of cell number (L1210, Jurkat) using electronic sizing with a Model ZM Coulter counter (Coulter Electronics, Hialeah, Fla.), or DNA content per culture (for all other cell lines) with the 3,5-diaminobenzoic acid assay. […] Cytotoxicity of the inhibitors was determined in the presence or absence of aminoguanidine, and was confirmed by a trypan blue exclusion assay.

[1] = system: polyamine transport system; test: Time course of [3H]spermidine accumulation in ZR-75-1 cells; assay type: cell-based, human; details: after 8 h
Description: In particular, exponentially growing T-47D (A) or ZR-75-1 cells (B and C) were transferred to serum-free medium containing 5 μM [^3H]spermidine, and either 200 μM cycloheximide (CHX) (●), 100 μM BNSD-X (□), CHX plus BNSD-X (▪), or vehicle only (∘). Cells were incubated for the time intervals indicated prior to harvesting for detrmination of total intracellular radioactivity. ZR-75-1 cells were either pre-incubated for 48 h in the absence (panel B) or presence of 1 mM DFMO (panel C) prior to the experiment shown; DFMO was also included during the labeling period in the appropriate group. Data are presented as the mean±SD for triplicate cultures from one representative experiment;
The effect of BNSD-X on the time course of [^3H]spermidine accumulation was determined in ZR-75-1 and T-47D cells pre-incubated in the presence or absence of DFMO before addition of radioactive substrate and the transport inhibitor. Subgroups of cell cultures were also treated with cycloheximide in order to prevent the polyamine-dependent induction of ODC antizyme, which rapidly down-regulates polyamine transport activity through an unknown mechanism (Lessard et al. (1995) J. Biol. Chem. 270, 1685-1694; Coffino et al. (2001) Nat Rev Mol Cell Biol. 2:188-194). […]

CHO-K1 cells = test: Determination of intracellular polyamine contents in CHO-K1 cells; assay type: cell-based, Chinese hamster
Description: At the indicated time, cells were harvested for the determination of putrescine (A), spermidine (B) and spermine contents (C). Data are presented as the mean±SD for triplicate cultures from one representative experiment; […] At the indicated time intervals, medium was removed, cell monolayers were rinsed twice: with 10 ml of ice-cold Ca^2+/Mg^2+-free phosphate-buffered saline (PBS) (2.7 mM KCl, 1.5 mM KH2PO4, 8.1 mM Na2HPO4, 137 mM NaCl), and cells were harvested by low-speed centrifugation (2400 g for 5 min at 4° C.). […] Polyamine content was then determined by ion-pair reverse phase HPLC with fluorometric detection after post-column derivatization with o-phthaldialdehyde as described (U.S. Pat. No. 6,083,496). […] Pat. No. 6,083,496).

NCCCN(CCCN)Cc1ccc(CN(CCCN)CCCN)cc1 [28a, N,N,N′,N′-tetrakis-(3-aminopropyl)-p-diaminoxylene]
effect of aminoguanidine addition on the cytotoxicity of the dimer (T-47D cells; 1 mM aminoguanidine): abolished most of the cytotoxicity
cytotoxicity in the absence of aminoguanidine (T-47D cells; BSAO active): considerably more cytotoxic than their spermidine-like homologs
inhibition of spermidine accumulation, without cycloheximide ([1]; BNSD-X:spermidine 20:1): 65%
inhibition of spermidine accumulation, with cycloheximide ([1]; BNSD-X:spermidine 20:1, 200 μM cycloheximide): 90%
reduction of intracellular spermidine content by BNSD-X alone (CHO-K1 cells; 100 μM, over the first 2 days of incubation): about 50%
effect on intracellular putrescine content (CHO-K1 cells; single agent): quickly led to putrescine depletion
effect on intracellular spermine content (CHO-K1 cells; up to 4 days): no significant effect on spermine content

— patent US7425579B2, “Methods for inhibiting activity of polyamine transporters” (Universite Laval, priority 1998, dated 2008)
